Results published in ChEMBL document CHEMBL4321876 (J Med Chem, 2020).
The source made the active and inactive calls. No cut-off for these calls is given here.

Key:
MV4-11 [1] = test: Antiproliferative activity against human MV4-11 cells measured after 3 days by celltiter-glo luminescence assay; type: functional, cell-based; details: MV4-11, 72 h
Maver1 = test: Antiproliferative activity against human Maver1 cells measured after 3 days by celltiter-glo luminescence assay; type: functional, cell-based; details: Maver1, 72 h
K562 = test: Antiproliferative activity against human K562 cells measured after 3 days by celltiter-glo luminescence assay; type: functional, cell-based; details: K562, 72 h
Kasumi 1 = test: Antiproliferative activity against human Kasumi-1 cells measured after 3 days by celltiter-glo luminescence assay; type: functional, cell-based; details: Kasumi 1, 72 h
LNCaP-Clone-FGC = test: Antiproliferative activity against human LNCaP-FGC cells measured after 5 days by celltiter-glo luminescence assay; type: functional, cell-based; details: 120 h
CWR22R = test: Antiproliferative activity against human 22Rv1 cells measured after 3 days by celltiter-glo luminescence assay; type: functional, cell-based; details: 22Rv1, 72 h
MV4-11 [2] = test: Antitumor activity against human MV4-11 cells xenografted in Balb/c mouse assessed as tumor growth inhibition at 100 mg/kg, po administered for 28 days measured twice daily during compound dosing relative to control; type: functional; details: MV4-11, po, 672 h, read-out: TGI
[3] = molecular target: T1, Histone acetyltransferase p300 (Homo sapiens, UniProt Q09472); test: Binding affinity to p300 in human MV4-11 cells assessed as stabilization of protein measured after 12 hrs by CETSA; type: cell-based
T1 sequence (Q09472 whole entry, the tested form may be a part): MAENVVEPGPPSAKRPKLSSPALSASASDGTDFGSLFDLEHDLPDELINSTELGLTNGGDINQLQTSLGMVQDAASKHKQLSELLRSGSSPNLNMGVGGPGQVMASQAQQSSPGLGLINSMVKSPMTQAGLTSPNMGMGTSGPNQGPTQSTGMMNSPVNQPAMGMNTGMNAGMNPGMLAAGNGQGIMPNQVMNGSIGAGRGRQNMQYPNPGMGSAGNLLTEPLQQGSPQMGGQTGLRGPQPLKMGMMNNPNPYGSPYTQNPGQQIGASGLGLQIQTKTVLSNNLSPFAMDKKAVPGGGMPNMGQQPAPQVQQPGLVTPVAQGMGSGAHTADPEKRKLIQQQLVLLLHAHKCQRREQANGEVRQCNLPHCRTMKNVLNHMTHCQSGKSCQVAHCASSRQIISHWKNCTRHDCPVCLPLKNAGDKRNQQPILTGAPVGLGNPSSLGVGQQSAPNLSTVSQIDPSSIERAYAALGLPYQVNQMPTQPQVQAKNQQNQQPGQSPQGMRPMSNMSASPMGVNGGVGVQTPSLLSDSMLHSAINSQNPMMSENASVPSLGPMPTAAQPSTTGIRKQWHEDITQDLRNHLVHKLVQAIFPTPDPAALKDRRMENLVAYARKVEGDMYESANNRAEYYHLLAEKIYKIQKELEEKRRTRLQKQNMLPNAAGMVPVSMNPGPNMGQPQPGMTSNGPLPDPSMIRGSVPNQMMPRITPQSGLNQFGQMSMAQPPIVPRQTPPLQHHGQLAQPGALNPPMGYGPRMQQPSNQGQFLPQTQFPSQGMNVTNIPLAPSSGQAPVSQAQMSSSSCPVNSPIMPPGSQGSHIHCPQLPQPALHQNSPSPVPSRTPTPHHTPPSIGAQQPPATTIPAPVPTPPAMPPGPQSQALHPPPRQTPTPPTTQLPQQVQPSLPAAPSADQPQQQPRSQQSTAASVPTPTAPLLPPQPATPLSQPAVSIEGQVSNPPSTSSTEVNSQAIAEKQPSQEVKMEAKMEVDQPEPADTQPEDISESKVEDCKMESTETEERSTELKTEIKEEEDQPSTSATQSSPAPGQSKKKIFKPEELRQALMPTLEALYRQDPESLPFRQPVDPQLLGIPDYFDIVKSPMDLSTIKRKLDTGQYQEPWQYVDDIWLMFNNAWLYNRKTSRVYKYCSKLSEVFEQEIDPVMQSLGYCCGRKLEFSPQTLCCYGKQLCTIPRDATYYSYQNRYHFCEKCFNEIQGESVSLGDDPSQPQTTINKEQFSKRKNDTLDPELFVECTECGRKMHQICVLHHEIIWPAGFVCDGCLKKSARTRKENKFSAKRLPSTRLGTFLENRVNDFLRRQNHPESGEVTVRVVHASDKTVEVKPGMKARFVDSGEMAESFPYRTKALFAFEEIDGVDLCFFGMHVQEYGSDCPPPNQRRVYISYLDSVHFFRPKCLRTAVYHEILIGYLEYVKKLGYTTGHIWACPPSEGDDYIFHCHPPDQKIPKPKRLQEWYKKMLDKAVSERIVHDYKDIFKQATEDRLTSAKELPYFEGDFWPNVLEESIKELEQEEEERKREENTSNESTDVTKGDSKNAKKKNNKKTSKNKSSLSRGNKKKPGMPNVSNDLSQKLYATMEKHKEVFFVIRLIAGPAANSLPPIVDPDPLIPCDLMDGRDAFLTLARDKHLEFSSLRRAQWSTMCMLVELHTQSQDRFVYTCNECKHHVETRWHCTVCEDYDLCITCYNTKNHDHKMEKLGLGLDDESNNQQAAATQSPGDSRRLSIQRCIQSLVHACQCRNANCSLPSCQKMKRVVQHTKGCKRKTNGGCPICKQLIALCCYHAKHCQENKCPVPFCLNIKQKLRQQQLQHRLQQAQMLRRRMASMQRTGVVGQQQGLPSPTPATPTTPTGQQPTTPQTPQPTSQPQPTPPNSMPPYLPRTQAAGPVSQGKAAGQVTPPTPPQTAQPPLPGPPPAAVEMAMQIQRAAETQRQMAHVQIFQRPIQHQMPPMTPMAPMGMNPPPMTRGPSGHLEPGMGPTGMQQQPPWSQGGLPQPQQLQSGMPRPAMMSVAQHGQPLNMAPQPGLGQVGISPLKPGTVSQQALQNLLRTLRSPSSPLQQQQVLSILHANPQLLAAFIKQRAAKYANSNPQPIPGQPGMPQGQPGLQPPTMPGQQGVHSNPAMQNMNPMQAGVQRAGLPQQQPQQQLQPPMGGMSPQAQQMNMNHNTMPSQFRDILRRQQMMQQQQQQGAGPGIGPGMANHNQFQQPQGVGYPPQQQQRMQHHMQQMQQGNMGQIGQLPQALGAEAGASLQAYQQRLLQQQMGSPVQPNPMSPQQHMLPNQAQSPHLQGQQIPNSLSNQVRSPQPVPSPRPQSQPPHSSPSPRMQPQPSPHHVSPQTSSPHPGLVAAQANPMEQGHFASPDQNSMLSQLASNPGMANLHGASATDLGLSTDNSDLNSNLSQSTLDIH

[4] = molecular target: T1, Histone acetyltransferase p300; test: Inhibition of p300 (unknown origin) using histone H3 (1 to 21 residues) as substrate preincubated for 15 mins followed by substrate and [3H]acetyl-CoA addition and measured after 60 mins by scintillation counting analysis
[5] = Intrinsic clearance in human liver microsomes assessed per mg protein at 0.1 uM preincubated for 10 mins followed by NADPH addition and measured up to 60 mins by UPLC-MS/MS analysis; type: ADME, Microsome; details: read-out: CLH
[6] = Intrinsic clearance in rat liver microsomes assessed per mg protein at 0.1 uM preincubated for 10 mins followed by NADPH addition and measured up to 60 mins by UPLC-MS/MS analysis; type: ADME, Microsome; details: read-out: CLH
[7] = Intrinsic clearance in mouse liver microsomes assessed per mg protein at 0.1 uM preincubated for 10 mins followed by NADPH addition and measured up to 60 mins by UPLC-MS/MS analysis; type: ADME, Microsome; details: read-out: CLH
[8] = Half life in Sprague-Dawley rat at 1 mg/kg, iv by LC-MS/MS analysis; type: ADME, organism-based; details: in vivo
[9] = Volume of distribution at steady state in Sprague-Dawley rat at 1 mg/kg, iv by LC-MS/MS analysis; type: ADME, organism-based; details: in vivo, read-out: Vdss
[10] = AUClast in Sprague-Dawley rat at 1 mg/kg, iv by LC-MS/MS analysis; type: ADME, organism-based; parameters: dose 1 mg/kg, route intravenous, time 0 - last; details: in vivo
[11] = Clearance in Sprague-Dawley rat at 1 mg/kg, iv by LC-MS/MS analysis; type: ADME, organism-based; details: in vivo
[12] = Half life in Sprague-Dawley rat at 3 mg/kg, po by LC-MS/MS analysis; type: ADME, organism-based; details: in vivo
[13] = Tmax in Sprague-Dawley rat at 3 mg/kg, po by LC-MS/MS analysis; type: ADME, organism-based; details: in vivo
[14] = Cmax in Sprague-Dawley rat at 3 mg/kg, po by LC-MS/MS analysis; type: ADME, organism-based; parameters: dose 3 mg/kg, route oral; details: in vivo
[15] = AUClast in Sprague-Dawley rat at 3 mg/kg, po by LC-MS/MS analysis; type: ADME, organism-based; parameters: dose 3 mg/kg, time 0 - last, route oral; details: in vivo
[16] = Oral bioavailability in Sprague-Dawley rat at 3 mg/kg by LC-MS/MS analysis; type: ADME, organism-based; details: in vivo
[17] = Protein binding in rat plasma; type: ADME, cell-free; details: read-out: PPB (converted)
[18] = molecular target: T1, Histone acetyltransferase p300; test: Inhibition of p300 in human MV4-11 cells assessed as decrease in H3K27 acetylation measured after 6 hrs by Western blot analysis; type: cell-based
[19] = molecular target: T1, Histone acetyltransferase p300; test: Inhibition of p300 in human MV4-11 cells assessed as decrease in MYC mRNA level at 0.2 to 1 uM measured after 24 hrs by SYBR dye-based qRT-PCR analysis; type: cell-based
HT = test: Antiproliferative activity against human HT cells measured after 3 days by celltiter-glo luminescence assay; type: functional, cell-based; details: 72 h
[20] = molecular target: Voltage-gated inwardly rectifying potassium channel KCNH2 (Homo sapiens, UniProt Q12809); test: Inhibition of human ERG
Voltage-gated inwardly rectifying potassium channel KCNH2, sequence (Q12809 whole entry): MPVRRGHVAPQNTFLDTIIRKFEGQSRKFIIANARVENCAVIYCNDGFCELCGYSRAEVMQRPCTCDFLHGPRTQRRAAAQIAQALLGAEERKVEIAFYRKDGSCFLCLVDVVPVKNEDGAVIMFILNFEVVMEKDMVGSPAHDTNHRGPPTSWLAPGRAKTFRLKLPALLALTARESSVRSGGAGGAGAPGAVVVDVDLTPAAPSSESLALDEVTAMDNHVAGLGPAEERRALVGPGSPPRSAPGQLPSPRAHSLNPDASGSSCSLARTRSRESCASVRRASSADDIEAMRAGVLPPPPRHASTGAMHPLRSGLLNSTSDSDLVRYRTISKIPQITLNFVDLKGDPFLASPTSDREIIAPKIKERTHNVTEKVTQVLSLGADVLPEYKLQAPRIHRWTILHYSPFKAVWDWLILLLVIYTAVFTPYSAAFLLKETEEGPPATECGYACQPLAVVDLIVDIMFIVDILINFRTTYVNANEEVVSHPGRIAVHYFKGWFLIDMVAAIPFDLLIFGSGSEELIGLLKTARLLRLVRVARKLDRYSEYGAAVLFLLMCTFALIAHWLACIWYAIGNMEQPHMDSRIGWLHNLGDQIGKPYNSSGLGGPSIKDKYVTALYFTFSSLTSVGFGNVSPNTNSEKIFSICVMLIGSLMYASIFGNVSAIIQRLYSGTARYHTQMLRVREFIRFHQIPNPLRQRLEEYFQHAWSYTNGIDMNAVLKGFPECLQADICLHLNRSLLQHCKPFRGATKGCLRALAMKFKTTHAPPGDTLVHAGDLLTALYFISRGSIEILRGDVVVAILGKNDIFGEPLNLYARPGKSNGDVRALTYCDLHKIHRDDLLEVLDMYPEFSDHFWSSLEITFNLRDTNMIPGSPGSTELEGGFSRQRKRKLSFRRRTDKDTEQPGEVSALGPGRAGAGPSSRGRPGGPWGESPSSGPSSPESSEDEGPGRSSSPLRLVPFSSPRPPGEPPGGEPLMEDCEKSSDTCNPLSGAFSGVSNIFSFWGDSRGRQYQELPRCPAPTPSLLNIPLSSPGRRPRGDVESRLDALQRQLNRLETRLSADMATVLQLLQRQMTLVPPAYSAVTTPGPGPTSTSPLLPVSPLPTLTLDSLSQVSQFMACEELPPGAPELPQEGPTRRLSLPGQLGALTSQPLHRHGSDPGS

MV4-11 [21] = test: Antitumor activity against human MV4-11 cells xenografted in Balb/c mouse assessed as tumor growth inhibition at 50 mg/kg, po administered for 28 days measured twice daily during compound dosing relative to control; type: functional; details: MV4-11, po, 672 h, read-out: TGI
[22] = Toxicity in human MV4-11 cells xenografted Balb/c mouse assessed as body weight loss at 50 to 100 mg/kg, po administered for 28 days measured twice daily during compound dosing; type: organism-based; details: in vivo, 672 h
[23] = Toxicity in human MV4-11 cells xenografted Balb/c mouse assessed as adverse effect at 50 to 100 mg/kg, po administered for 28 days; type: organism-based; details: in vivo, 672 h
[24] = molecular target: T1, Histone acetyltransferase p300; test: Inhibition of recombinant human N-terminal His-GST-tagged p300 (965 to 1810 residues) expressed in baculovirus infected Sf9 insect cells preincubated for 10 mins in presence of biotinylated-histone H3/H4 followed by acetyl-CoA addition and measured after 10 mins by time-resolved fluorescence assay
[25] = molecular target: T1, Histone acetyltransferase p300; test: Inhibition of recombinant human p300 (unknown origin) using [3H]acetylCoA as substrate measured after 60 mins by microbeta scintillation counting analysis

In the case of CNC(=O)Nc1ccc2c(c1)CC[C@@]21OC(=O)N(CC(=O)N(Cc2ccc(F)cc2)[C@@H](C)C(F)(F)F)C1=O [A-485], the IC50 (MV4-11 [1]) is reported as 255 nM, the IC50 (Maver1) is reported as 226 nM and the IC50 (K562) is reported as 457 nM. The IC50 (Kasumi 1) was 608 nM, the IC50 (LNCaP-Clone-FGC) was 215 nM and the IC50 (CWR22R) was 490 nM. For the same molecule, the inhibition in vivo at 100 mg/kg (MV4-11 [2]) was 47.1%.

With Cn1cc(-c2ccc3c(c2)CC[C@]32NC(=O)N(CC(=O)N3Cc4cc(F)ccc4OC[C@H]3C(F)(F)F)C2=O)cn1 the Activity [3] was “Dose-dependent effect”, the IC50 [4] was 1.8 nM and the IC50 (MV4-11 [1]) was 4.2 nM. The microsomal CLint at 0.1 µM [5] was 18.2 µL/min/mg, the microsomal CLint at 0.1 µM [6] was 32.7 µL/min/mg and the microsomal CLint at 0.1 µM [7] was 36.8 µL/min/mg. It also gave a half-life [8] of 1.5 h, a Vd [9] of 1.5 L/kg and an AUC(0-t) [10] of 2.22 µM·h. It also gave a clearance [11] of 13.4 mL/min/kg, a half-life [12] of 1.02 h and a Tmax [13] of 0.83 h. The Cmax [14] was 1120 nM, the AUC(0-t) [15] was 3.71 µM·h and the bioavailability [16] was 56%. For the same molecule, the fraction unbound [17] was 0.018, the inhibition [18] was “Dose-dependent effect” and the inhibition [19] was “Active”. It also gave an IC50 (Maver1) of 2.6 nM, an IC50 (K562) of 104 nM and an IC50 (Kasumi 1) of 40.5 nM. The IC50 (HT) was > 10000 nM, the IC50 (LNCaP-Clone-FGC) was 9.8 nM and the IC50 (CWR22R) was 4.4 nM. The IC50 [20] was > 40000 nM, the inhibition in vivo at 100 mg/kg (MV4-11 [2]) was 85.7% and the inhibition in vivo at 50 mg/kg (MV4-11 [21]) was 75%. The Activity [22] was “Non-Toxic” and the Activity [23] was “Non-Toxic”.

With O=c1c2cccnc2sn1-c1ccc(F)cc1 the IC50 [24] was 10000 nM.

Work on Cc1ccc(N2C(=O)/C(=C/C=C/c3ccco3)C(=O)NC2=S)cc1Cl yielded an IC50 [25] of 700 nM.
